Laboratory results reported in PubChem BioAssay (NCI).
“And” between values parts separate entries of the source, which are not always exact repeats. Identical values can stand only once.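 Method: 48-hour compound exposure of cells in 96-well plates, five concentrations, linear interpolation of endpoints. GI50: concentration for 50% inhibition of growth. Definition used: TGI = concentration required for complete inhibition of growth.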

Experiments:
Test in all cases: growth of human tumour cells (NCI), 48 h
[1] = system: MALME-3M melanoma
[2] = system: SF-268 CNS
[3] = system: OVCAR-5 ovarian
[4] = system: HS 578T breast
[5] = system: SN12C renal
[6] = system: EKVX NSCLC
[7] = system: U251 CNS
[8] = system: DU-145 prostate
[9] = system: HT29 colon
[10] = system: MCF7 breast

Compound	GI50 [1]	TGI [1]	GI50 [2]	TGI [2]	GI50 [3]	TGI [3]	GI50 [4]	TGI [4]	GI50 [5]	TGI [5]	GI50 [6]	TGI [6]	GI50 [7]	TGI [7]	GI50 [8]	TGI [8]	GI50 [9]	TGI [9]	GI50 [10]	TGI [10]
O=C1c2ccc3c4c(ccc(c24)C(=O)N1CCCNCc1ccccc1Cl)C(=O)N(CCCNCc1ccccc1Cl)C3=O	0.315 µM	1.05 µM	0.477 µM	1.49 µM	0.592 µM	1.67 µM	0.984 µM	11.9 µM	0.0995 µM	0.206 µM	0.481 µM	1.16 µM	0.218 µM	0.91 µM	0.261 µM	0.86 µM	0.123 µM	0.335 µM	0.1 µM	0.231 µM
CCSc1nc(SCC)c2c(-c3ccc(OC)c(OC)c3)c(C#N)c(SCC)nc2n1	–	–	14.2 µM	77.4 µM	18.8 µM	47.7 µM	3 µM	19.7 µM	21.7 µM	56.7 µM	17.4 µM	53.3 µM	22.7 µM	48.3 µM	17.7 µM	47.8 µM	–	–	14.8 µM	> 100 µM
COc1ccc(Cl)c(Nc2nc3ccccc3nc2NS(=O)(=O)c2cccc(NC(=O)C(C)(C)N)c2)c1	10.2 µM and > 10 µM	24.9 µM and > 10 µM	10.9 µM and 9.94 µM	25.5 µM and > 10 µM	4.76 µM and > 10 µM	22.5 µM and > 10 µM	2.37 µM and 1.69 µM	15.1 µM and > 10 µM	9.79 µM and > 10 µM	22.3 µM and > 10 µM	6.25 µM and > 10 µM	21 µM and > 10 µM	11 µM and > 10 µM	24.1 µM and > 10 µM	12.1 µM and > 10 µM	25 µM and > 10 µM	9.87 µM and 6.23 µM	25.9 µM and > 10 µM	2.66 µM and 1.9 µM	16.8 µM and > 10 µM
O=C(Nc1ccc(Oc2cccc(F)c2)c(Cl)c1)c1cnccn1	3.03 µM	> 50 µM	7.81 µM	> 50 µM	4.27 µM	> 50 µM	1.19 µM	> 50 µM	3.6 µM	> 50 µM	2.67 µM	> 50 µM	1.51 µM	> 50 µM	2 µM	> 50 µM	0.234 µM	> 50 µM	0.413 µM	> 50 µM
COc1ccc(/C=C(\C(=O)NCc2cccnc2)S(=O)(=O)c2ccccc2)cc1OC	3.06 µM	11.9 µM	3.32 µM	15.9 µM	3.31 µM	10.3 µM	3.41 µM	26.3 µM	2.49 µM	9.15 µM	3.13 µM	12.2 µM	3.09 µM	14 µM	3.06 µM	12.4 µM	3.45 µM	14.8 µM	2.41 µM	12.7 µM
CC1=C(C(=O)N(C)c2ccc(Cl)c(C(=O)OC(C)C)c2)SCCO1	–	> 100 µM	–	> 100 µM	–	> 100 µM	–	> 100 µM	–	> 100 µM	–	> 100 µM	–	> 100 µM	–	> 100 µM	–	> 100 µM	–	> 100 µM
OCCn1cnc2c(SCc3ccccc3)ncnc21	–	> 100 µM	–	> 100 µM	–	> 100 µM	–	> 100 µM	–	> 100 µM	–	> 100 µM	–	> 100 µM	–	> 100 µM	–	> 100 µM	–	> 100 µM
Cc1cnc(CNC(=O)c2c(=O)c3ccc(N4CCCN(C)CC4)nc3n3c2sc2ccccc23)cn1	9.24 µM	25.8 µM	1.55 µM	25.6 µM	13.2 µM	28.9 µM	16.6 µM	47.4 µM	1.32 µM	19.9 µM	9.14 µM	23.2 µM	3 µM	7.37 µM	1.03 µM	6.29 µM	1.43 µM	19 µM	0.804 µM	16.4 µM
NC(=O)c1ccc(-c2nc(-c3ccc4c(c3)OCO4)c(-c3ccccn3)[nH]2)cc1	> 25 µM and 38.2 µM	> 100 µM	> 25 µM and 50.7 µM	> 100 µM	> 25 µM and 32 µM	> 100 µM	> 25 µM and 28.2 µM	> 100 µM	> 25 µM and 42.2 µM	> 100 µM	> 25 µM and 44.9 µM	> 100 µM	> 25 µM and 44.5 µM	> 100 µM	> 25 µM and 38.7 µM	> 100 µM	> 25 µM and 28.3 µM	> 93.8 µM	> 25 µM and 31.9 µM	> 83.8 µM
COc1cc(OC)c(C(=O)/C=C/c2cccc(C#N)c2)c(OC)c1	1.76 µM	8.13 µM	1.69 µM	7.9 µM	2.26 µM	7.95 µM	1.59 µM	44.9 µM	1.5 µM	7.1 µM	1.37 µM	5.32 µM	1.53 µM	5.76 µM	1.47 µM	6.37 µM	1.69 µM	5.87 µM	1.33 µM	6.72 µM
NC(=O)Nc1cc(-c2cccc(F)c2)sc1C(=O)N[C@H]1CCCNC1	0.232 µM and 0.729 µM	4.95 µM and 6.8 µM	0.327 µM and 0.458 µM	3.35 µM and 4.14 µM	0.173 µM and 0.361 µM	> 6.2 µM and 4.4 µM	0.0322 µM and 0.197 µM	–	0.0889 µM and 0.218 µM	3.28 µM and 3.27 µM	0.576 µM and 1 µM	> 5.79 µM and 8.28 µM	0.354 µM and 0.526 µM	> 4.59 µM and 2.53 µM	0.21 µM and 0.435 µM	2.07 µM and 3.81 µM	0.25 µM and 0.282 µM	> 10 µM and 1.37 µM	0.0285 µM and 0.144 µM	> 10 µM and 13.6 µM
COc1cc([N+](=O)[O-])c(OC)cc1-c1nc2sccn2c1/C=N/N=C(N)N	11 µM	40.7 µM	4.86 µM	35.3 µM	53.8 µM	> 100 µM	19 µM	43.9 µM	9.36 µM	42.1 µM	25.9 µM	73.6 µM	3.66 µM	15 µM	30.4 µM	> 100 µM	82.1 µM	> 100 µM	22 µM	> 100 µM
CN(C)c1ccc(C(=NO)c2ccc(N(C)C)cc2)cc1	2.63 µM	> 100 µM	4.71 µM	> 100 µM	15.1 µM	> 100 µM	7.39 µM	> 100 µM	4.94 µM	> 100 µM	3.28 µM	> 100 µM	2.68 µM	> 100 µM	4.52 µM	> 100 µM	3.6 µM	> 100 µM	1.71 µM	> 100 µM
